Assay results published in US9987246B2, “4-benzylsulfonyl-2-butenenitrile” (Olatec Therapeutics LLC, priority 2014, dated 2018).

Legend:
[1] = system: mice; experiment: Tail flick test (analgesic activity, 49° C. water bath); assay type: in vivo
Description: Tail flick test is a test of the pain response in animals. Tail flick test is used in basic pain research and to measure the effectiveness of analgesics, by observing the tail flick reaction to heat in an animal. This test assesses the nociceptive response to a local pain stimulus, and the ability of a drug to inhibit this response.
Vehicle control (dimethyl sulfoxide, DMSO) and test compound 4-benzylsulfonyl-2-butenenitrile in DMSO were administered intraperitoneally to mice with a volume of 5 mL/kg, twice, at 30 minutes before the first tail flick measurement. The test compound was administered at a dosage of 50 mg/kg. The positive control compound morphine was administered by subcutaneous injection at 8 mg/kg with a volume of 8 mL/kg, at 30 minutes before the first tail flick measurement. Each group had 10 mice.
The response of mice to heat stimulus was evaluated by measuring the time of tail-flick or tail-flick latency from 49° C. water bath. Briefly, the animal was placed in a restrainer with its tail hanging down. Approximately 2 inches of the tail was immersed in a beaker of water at 38±1° C. for about 30 seconds, and this was done twice to acclimate the animal to the procedure.
Subsequently, approximately 2 inches of the tail was immersed in a beaker of water at 49±1° C., at which point a timer was started.
Tail flick measurements were made 30, 60 and 120 minutes post administration of the dosage of test compound. An ANOVA was done, and if p<0.05, a Dunnett's t test was employed to calculate significant difference between vehicle control and test compound treated groups. A pairwise Student's t test was used to calculate differences between the morphine group and the control group.

[2] = system: human peripheral blood mononuclear cells; experiment: Pro-inflammatory cytokine release from human peripheral blood mononuclear cells in vitro; assay type: cell-based; conditions: statement only, no data or method given

Row | SMILES | tail flick latency compared with vehicle-treated mice ([1]; 50 mg/kg intraperitoneal in DMSO, 30 minutes, p value=0.046) | tail flick latency compared with vehicle-treated mice ([1]; 50 mg/kg intraperitoneal in DMSO, 120 minutes, p value=0.020) | inhibition of pro-inflammatory cytokine release (e.g., IL-1β, IL-6, TNFα, IL-4 and IFNγ) [2] | tail flick latency compared with vehicle-treated mice ([1]; morphine 8 mg/kg subcutaneous injection, 30 minutes) | tail flick latency compared with vehicle-treated mice ([1]; morphine 8 mg/kg subcutaneous injection, 60 minutes) | tail flick latency compared with vehicle-treated mice ([1]; morphine 8 mg/kg subcutaneous injection, 120 minutes)
1 | N#CC=CCS(=O)(=O)Cc1ccccc1 (racemic) [4-benzylsulfonyl-2-butenenitrile] | statistically significant tail flick latency | statistically significant tail flick latency | effective in inhibiting pro-inflammatory cytokine release | – | – | –
2 | CN1CC[C@]23c4c5ccc(O)c4O[C@H]2[C@@H](O)C=C[C@H]3[C@H]1C5 [Morphine, morphine] | – | – | – | statistically significant tail flick latency | statistically significant tail flick latency | not at 120 minutes
